Assay results taken from PMC4427492, “The Repellent DEET Potentiates Carbamate Effects via Insect Muscarinic Receptor Interactions: An Alternative Strategy to Control Insect Vector-Borne Diseases” (PLoS ONE, 2015).

Tests used:
[1] = test system: acetylcholinesterase (AChE); test: Ellman spectrophotometric AChE activity assay on DUM neuron suspension; assay type: cell-based, Periplaneta americana
[2] = biological target: T1, human M1 muscarinic acetylcholine receptor (hM1 mAChR) (Homo sapiens, UniProt P11229); test: [3H]NMS radioligand displacement; also antagonism of CCh-induced calcium mobilization; assay type: binding
T1 construct: gene CHRM1; membranes of CHO cells stably expressing human M1
T1 sequence (P11229 1-460): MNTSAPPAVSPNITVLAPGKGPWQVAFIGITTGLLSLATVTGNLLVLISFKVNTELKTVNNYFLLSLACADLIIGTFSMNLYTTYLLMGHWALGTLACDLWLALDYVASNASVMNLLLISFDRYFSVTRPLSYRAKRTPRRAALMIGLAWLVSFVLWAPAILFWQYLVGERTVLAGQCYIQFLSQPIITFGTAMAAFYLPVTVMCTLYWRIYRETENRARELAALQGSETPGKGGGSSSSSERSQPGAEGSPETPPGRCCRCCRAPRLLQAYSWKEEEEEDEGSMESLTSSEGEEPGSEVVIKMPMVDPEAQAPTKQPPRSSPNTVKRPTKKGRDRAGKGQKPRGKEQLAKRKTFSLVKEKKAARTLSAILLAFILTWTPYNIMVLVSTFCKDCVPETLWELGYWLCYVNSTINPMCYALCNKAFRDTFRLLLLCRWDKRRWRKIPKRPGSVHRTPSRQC
Text: [3H]NMS radioligand displacement; also antagonism of CCh-induced calcium mobilization on human M1 muscarinic acetylcholine receptor (hM1 mAChR) | DEET displaced the [^3H]N-Methyl Scopolamine (NMS) binding from M1 and M3 mAChRs but only in the millimolar range

[3] = biological target: T2, human M3 muscarinic acetylcholine receptor (hM3 mAChR) (Homo sapiens, UniProt P20309); test: as above; assay type: binding
T2 construct: gene CHRM3; membranes of CHO cells stably expressing human M3
T2 sequence (P20309 whole entry): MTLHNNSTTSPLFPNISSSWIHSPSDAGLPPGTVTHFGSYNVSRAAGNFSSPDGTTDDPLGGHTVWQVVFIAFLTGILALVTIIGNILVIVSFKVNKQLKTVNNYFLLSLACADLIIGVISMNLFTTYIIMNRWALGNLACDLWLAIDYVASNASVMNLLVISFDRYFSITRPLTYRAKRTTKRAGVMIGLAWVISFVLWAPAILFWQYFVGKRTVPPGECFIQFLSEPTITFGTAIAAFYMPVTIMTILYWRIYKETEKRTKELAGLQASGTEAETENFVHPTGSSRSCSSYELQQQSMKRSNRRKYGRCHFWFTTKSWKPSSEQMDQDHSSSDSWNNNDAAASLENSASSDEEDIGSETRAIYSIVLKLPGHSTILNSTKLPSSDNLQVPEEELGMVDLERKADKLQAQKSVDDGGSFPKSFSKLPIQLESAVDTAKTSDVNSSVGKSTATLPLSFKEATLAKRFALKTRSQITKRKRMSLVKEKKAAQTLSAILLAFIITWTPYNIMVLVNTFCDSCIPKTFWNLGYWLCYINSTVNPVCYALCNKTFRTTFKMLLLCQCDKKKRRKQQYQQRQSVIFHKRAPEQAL

Row | SMILES | IC50 [1] [µM] | Ki [2] [µM] | Ki [3] [µM]
1 | CNC(=O)Oc1ccccc1OC(C)C [propoxur, 2-isopropoxyphenylmethylcarbamate] | 0.02 | – | –
2 | CCN(CC)C(=O)c1cccc(C)c1 [DEET, N,N-Diethyl-3-methylbenzamide] | – | 690 ± 190 | 370 ± 20
